Several values for one entry are separate records, joined by “and”; a condition that tells them apart may be missing. Equal entries are not always repeated.

Drawing on PubChem BioAssay AID2060627 (Molecular Pharmacology Branch, DTP, NCI, 2025), this text covers viability, T/C and IC50 for one molecule.

The assay deals with 156681-154-R-J1-PDC complex spheroid viability. In words: Anticancer human tumor 156681-154-R-J1-PDC patient-derived melanoma cell line growth inhibition [CLK]. The note with it: for viability, T/C: stronger effect = lower value. The method, boiled down: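 Patient-derived tumor cells grown as complex spheroids with HUVEC endothelial cells and mesenchymal stem cells, treated with drug combinations. Concentrations descend in half-log steps from near clinical Cmax, or from 10 microM if Cmax unknown.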
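Also: spheroids exposed to the agents for seven days.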
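For viability, T/C in this document: 100% = DMSO vehicle control viability.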

Turning to `CCCS(=O)(=O)Nc1ccc(F)c(C(=O)c2c[nH]c3ncc(-c4ccc(Cl)cc4)cc23)c1F`, the viability, T/C by setting is: (compound 0.0316 µM) 90.6% and 79.6%; (compound 0.1 µM) 77.4% and 59.3%; (compound 0.316 µM) 99.6% and 96.6%; (compound 1 µM) 92.4% and 73.8%; (compound 3.16 µM) 85.8% and 83.2%; (compound 10 µM) 11.3% and 6.41%. For the same molecule, the IC50 (curve of compound) is 5.5 µM and 4.99 µM.

Usually viability, T/C stands for the ratio of treated to control. Usually IC50 stands for the concentration at which inhibition is half-maximal.
